We go through 88 compounds from PubChem BioAssay AID1259427 (Fisher Drug Discovery Resource Center, 2018).

“And” between values parts separate entries of the source, which are not always exact repeats. Equal values may be shown once. The source made the active and inactive calls.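 Rule for the calls: active = EC50 at or below a set limit, with no effect in the paired counter-screen assay; inactive = the rest.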 Some results are limits rather than exact numbers.

In this assay the target is Aedes aegypti neuropeptide Y-like receptor 7 (NPYLR7). Briefly: NPYLR7 activation potency in cells – cell-based, Aedes aegypti, hit validation, mosquito biting behavior, confirmation (AID 1259427).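 Note: potency of agonists that activate the receptor and raise the calcium signal.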 As to conditions: HEK293T NPYLR7/Galpha15/GCaMP6s, calcium fluorescence.

Turning to `CC(C)CN1C(=O)C(=Cc2c(N3CCN(CCO)CC3)nc3ccccn3c2=O)SC1=S`, the EC50 was > 20 µM (inactive).
Turning to `CCN1CCc2c(sc(NC(=O)C3=COCCO3)c2-c2nc3ccccc3s2)C1`, the EC50 entry is “inactive”.
As for `NS(=O)(=O)c1ccc(NC(NC(=O)c2ccco2)C(=O)c2ccc(Cl)cc2)cc1` (stereo not drawn), the figure is > 20 µM (inactive); as for `COc1ccc(CN2CCN(Cc3cccn3-c3ncccn3)CC2CCO)c(C)c1C` (stereo not drawn), > 20 µM (inactive); as for `CCOc1cc(/C=C2\C(=N)N3N=CSC3=NC2=O)cc(Br)c1OC(=O)c1ccccc1`, “inactive”.
As for `Cn1c(/C(C#N)=C/c2ccc(N3CCOCC3)o2)nc2ccccc21`, the figure is 14.9 µM; as for `Cc1nc(Sc2nnc3ccccn23)c2c3c(sc2n1)CCCC3`, > 20 µM (inactive).
As for `CSCCC(C(=O)O)N1C(=O)/C(=C/c2ccc(O)cc2)SC1=S` (stereo not drawn), the figure is > 20 µM (inactive); as for `CCCS(=O)(=O)N1CCN=C1SCc1ccccc1C`, > 20 µM (inactive); as for `CCCN1CCc2c(sc3c2c(NC(CC)CO)nc2nnnn23)C1` (stereo not drawn), > 20 µM (inactive).
For `O=[N+]([O-])c1c[n+]([O-])n(-c2cccc(Cl)c2)n1`, the EC50 was > 20 µM (inactive).
As for `CCCCCN=C(N)NN=Cc1c[nH]c2ccc(OC)cc12`, the figure is 7.37 µM; as for `O=C(O)c1[nH]ncc1CN1CCc2onc(-c3ccc(C(F)(F)F)cc3)c2C1`, > 20 µM (inactive).
As for `COc1cccc(CN2C(=O)c3cccc(N)c3C2=O)c1`, the figure is > 20 µM (inactive).
As for `COc1ccccc1Oc1nc2ccccn2c(=O)c1/C=C(\C#N)c1nc2ccccc2s1`, the figure is > 20 µM (inactive).
Turning to `O=C(O)CCN1C(=O)/C(=C/c2ccc(O)cc2)SC1=S`, the EC50 entry was “inactive”.
Then `O=C1Nc2ccccc2C1C=NN1CCOCC1` (stereo not drawn), with > 20 µM (inactive).
On to `CC(=O)Oc1ccc(Cn2c(C)c(C(=O)NCc3ccc(C#N)cc3)sc2=O)cc1`, for which the EC50 is > 20 µM (inactive).
Take `O=c1oc2cc(O)ccc2cc1-c1nc2ccccc2s1`: the EC50 result was “inactive”.
As for `C[C@H](O)C(=O)C1=Nc2c(nc(N)[nH]c2=O)NC1`, the figure is > 20 µM (inactive); as for `Cc1oc(-c2cccc(NC(=O)CC(C)C)c2)nc1CNC(=O)Cc1cc(F)cc(F)c1`, > 20 µM (inactive).
With `CN1C(=S)N(c2ccc3c(c2)CCC3)C(=O)/C1=C\c1ccncc1`, the EC50 is > 20 µM (inactive).
Consider `COc1ccc(OC)c(CCNc2nc3cnc(-c4ccc5c(c4)OCO5)cc3n2C)c1`, for which the EC50 was 8.34 µM.
Then `Cc1ccc(Nc2nc(Nc3cccc(F)c3)nc3nccnc23)c(C)c1`, with > 20 µM (inactive); and `CCOc1ccc(/C=C2N=C(/C=C/c3ccccc3)OC/2=O)cc1`, with > 20 µM (inactive).
Then `CCN(CC)c1ccc2cc(C(N)=O)/c(=N\NC(N)=S)oc2c1`, with < 0.039 µM (inactive).
As for `CC1(C)CC(=O)C2C(=Nc3[nH]c(=S)[nH]c(=O)c3C2c2ccc3c(c2)OCO3)C1` (stereo not drawn), the figure is > 20 µM (inactive).
As for `COc1cc(C=C(C#N)S(=O)(=O)c2cc(Br)ccc2Br)ccc1O`, the EC50 is > 20 µM (inactive).
`CC1CN(c2ccc(/C=C(\C#N)c3nc4ccccc4[nH]3)o2)CC(C)O1` (stereo not drawn): the EC50 was > 20 µM (inactive).
Then `O=C1C(=Cc2ccc(OC(F)F)cc2OC(F)F)Oc2cc(O)ccc21`, with > 20 µM (inactive); and `Cc1cc(O)c(CN2CCCCC2)c2c1C(=O)/C(=C/c1cc3ccccc3o1)O2`, with > 20 µM (inactive); and `CCOc1cc2c(cc1C=C(C#N)C#N)OC(C)C2` (stereo not drawn), with > 20 µM (inactive).
In the case of `CCOc1cc(/C=C(\C#N)c2nc3ncc(Br)cc3[nH]2)ccc1O`, the EC50 result is “inactive”.
Then `O=C(O)CSc1ccc2c3c(cccc13)C(=O)c1ccccc1-2`, with “inactive”; and `O=C(COc1ccccc1)N1CCCC(CNS(=O)(=O)c2cccs2)C1` (stereo not drawn), with 13.2 µM; and `O=C(NCCSc1ccc(Cl)cc1)c1ccc2c(=O)n3c(nc2c1)CCC3`, with > 20 µM (inactive).
As for `CCN(CC)c1ccc(/C=C2\SC(=S)N(CCS(=O)(=O)O)C2=O)cc1`, the entry is “inactive”; as for `Oc1ccc(-c2onc3ccc(Cl)cc23)cc1`, > 20 µM (inactive); as for `O=C(CSc1cn(CC(=O)N2CCCCCC2)c2ccccc12)NC1CCCC1`, > 20 µM (inactive).
Then `CCn1c(O)c(C=Nc2c(C#N)c(C)c(C)n2C2CCCCC2)c(=O)n(CC)c1=S`, with “inactive”.
Take `Cc1ccc2nc(Cn3cnc4c(Cl)cc(Cl)cc4c3=O)cc(=O)n2c1`: the EC50 was > 20 µM (inactive).
As for `CCN1CCc2c(sc(NC(=O)c3ccccc3)c2-c2nc3ccccc3s2)C1`, the figure is > 20 µM (inactive).
On to `COC(=O)C(C)Sc1nc2sc3c(c2c(=O)n1C)CCC3` (stereo not drawn), for which the EC50 was > 20 µM (inactive).
On to `COc1cc(/C=C2\SC(=S)N(c3cccc(C(=O)O)c3)C2=O)ccc1O`, for which the EC50 was > 20 µM (inactive).
Then `Cc1cc2nc3c(=O)[nH]c(=O)nc-3n(CC(O)C(O)C(O)CO)c2cc1C` (stereo not drawn), with < 0.039 µM (inactive).
As for `COc1cc(C=C2SC(=S)NC2=O)cc(Br)c1O`, the entry is “inactive”.
Then `O=C(CNCc1ccccc1)N1CC(=O)N(c2cccc(Cl)c2)C1`, with > 20 µM (inactive); and `Nc1ncnc2c1ncn2[C@@H]1O[C@H](CO)[C@@H](O)[C@H]1O`, with “inactive”; and `CC[C@@]1(O)C(=O)OCc2c1cc1n(c2=O)Cc2cc3c(CN(C)C)c(O)ccc3nc2-1`, with “inactive”.
As to `Cc1ccc(NC2C=CS(=O)(=O)C2)cc1C` (stereo not drawn), the EC50 is > 20 µM (inactive).
`CSc1nc(N)c2ncn([C@@H]3O[C@H](COP(=O)(O)OP(=O)(O)OP(=O)(O)O)[C@H](O)C3O)c2n1` (stereo partly drawn): the EC50 result is “inactive”.
Consider `COCCCN(Cc1ccc(C(C)(C)C)cc1)Cc1cccn1Cc1cccc(C)c1`, for which the EC50 was > 20 µM (inactive).
Consider `N#CC1C(=N)Oc2cc(O)ccc2C1c1ccccc1I` (stereo not drawn), for which the EC50 result is “inactive”.
As for `COc1ccc(C(=O)N(Cc2ccccc2)C2CCC(NC(=O)C3CCN(C(=O)c4ccccc4Cl)CC3)CC2)cc1` (stereo not drawn), the figure is 18 µM.
Then `CCCc1nn2c(N)c(C=C3C=C(Cl)C(=O)C(Cl)=C3)c(=O)nc2s1`, with > 20 µM (inactive); and `O=C1c2ccccc2C(=O)C1c1ccnc2ccccc12`, with > 20 µM (inactive).
As for `COCCCNCc1c(-c2ccc(F)cc2)noc1N1CCOCC1`, the figure is > 20 µM (inactive).
Consider `O=C(O)c1csc(CSc2nnc(-c3ccncc3)n2-c2cccc(C(F)(F)F)c2)n1`, for which the EC50 is > 20 µM (inactive).
Then `COc1ccccc1N=c1oc2cc(O)ccc2cc1-c1nc2ccccc2[nH]1`, with “inactive”; and `O=C(O)CCn1c(O)c(C=C2C=Nc3ccccc32)sc1=S`, with > 20 µM (inactive); and `CCN1CC(=Cc2cc(C)n(C3CC3)c2C)C(=O)C(=Cc2cc(C)n(C3CC3)c2C)C1`, with > 20 µM (inactive).
As for `O=C(N=Nc1c(O)[nH]c2ccc(Br)cc12)c1ccccc1Cl`, the figure is > 20 µM (inactive).
Then `COc1cccc(CNC2CC2)c1OCc1nc(CO)cs1`, with > 20 µM (inactive); and `O=[N+]([O-])c1cc(S(=O)(=O)Nc2cc(Cl)ccc2F)ccc1F`, with > 20 µM (inactive).
As for `C[C@@H](NC(=O)CN1Cc2ccc(N3CCOCC3)nc2C1=O)c1ccccc1`, the EC50 is > 20 µM (inactive).
As for `Cc1ccc(C(=O)C=Cc2ccc(N(C)C)cc2)o1`, the figure is < 0.039 µM (inactive); as for `Cc1cc2c(c(-c3ccc4c(cnn4C)c3)c1)OC(CN)C2` (stereo not drawn), > 20 µM (inactive); as for `COc1cc(OC)c(OC)cc1/C=C1/SC(=S)N(CC(=O)O)C1=O`, “inactive”.
Then `CC(=O)NCCc1ccc(O)c(O)c1`, with “inactive”; and `CCN(CC)c1ccc(/C=C2/SC(=S)N(CC(=O)O)C2=O)cc1`, with “inactive”; and `Cc1cc(O)c(CN2CCCC2)c2c1C(=O)/C(=C/c1cc3ccccc3o1)O2`, with > 20 µM (inactive).
Then `C=CCNc1ccc2c3c(cccc13)C(=O)N(c1ccccc1)C2=O`, with “inactive”.
Regarding `CC1C(=O)N(c2cccc(F)c2)CCN1C(=O)C1CC1` (stereo not drawn), the EC50 is > 20 µM (inactive).
As for `CCCCN(C)C1=CC2=CC(=C(C#N)C#N)CCC2CC1` (stereo not drawn), the figure is < 0.039 µM (inactive); as for `CCOC(=O)C1=C(C)NC(C)=C(C(=O)OCC)C1c1cc(Cl)ccc1OC(F)F`, > 20 µM (inactive); as for `O=C1c2ccccc2-c2nn(CN3CCN(c4ccccc4)CC3)c3cccc1c23`, > 20 µM (inactive).
Consider `CC(C)Nc1ccc(NS(=O)(=O)NCc2ccccc2)cn1`, for which the EC50 is > 20 µM (inactive).
Then `CC(C)NC[C@H](O)c1ccc(O)c(O)c1`, with < 39 nM (inactive) and > 20 µM (inactive); and `COc1ccc(C(=O)C=Cc2cc(OC)c(O)c(OC)c2)cc1F`, with > 20 µM (inactive).
Then `CCOC(=O)c1ccccc1-c1c2ccc(=N)cc-2oc2cc(N)ccc12`, with < 0.039 µM (inactive); and `NC(=S)N/N=c1\oc2cc(O)ccc2cc1-c1nc2ccccc2[nH]1`, with “inactive”.
For the compound `COc1cccc(-n2c(O)c(C=Nc3cc(OC)ccc3OC)c3ccccc3c2=O)c1`, the EC50 is > 20 µM (inactive).
As for `CCN1C(=Cc2ccc3cc(C)ccc3[n+]2CC)Sc2ccccc21`, the entry is “inactive”; as for `CC(C)OC(=O)C(C(=O)C(F)(F)F)c1cc(NS(=O)(=O)c2ccc(Cl)cc2)ccc1O` (stereo not drawn), > 20 µM (inactive).
Turning to `CCOC(=O)c1ccc(N=c2oc3cc(O)ccc3cc2-c2nc3ccccc3[nH]2)cc1`, the EC50 result is “inactive”.
As for `COC(=O)C1CCN(S(=O)(=O)c2c(F)cc(F)cc2Br)CC1`, the figure is > 20 µM (inactive); as for `CCOC(=O)C1CCCN(c2nc3nonc3nc2N2CCSCC2)C1` (stereo not drawn), > 20 µM (inactive); as for `N#C/C(=C\c1ccc(O)c(O)c1)C(=O)NCCCc1ccccc1`, 17.4 µM.
